From US4140769A, “3-Substituted salicylamides” (Miles Laboratories, Inc., priority 1978, dated 1979)
Where a name gives a salt, the structure may show the parent alone. Read-outs that look alike come from different tables or passages of the source.

How the values were obtained:
[1] = system: abdominal constriction response; assay: abdominal constriction response (analgesic activity, acetylcholine chloride-induced, s.c. dosing); type: in vivo, mice; conditions: for ED50: Mus musculus, sc; for analgesic activity, in words: Table II conclusions and summary; for ED50 / potency, in words: compared with control compound, other examples; for analgesic activity (no activity): at 20 mg/kg, hydrochloride
Procedure: The analgesic activity of the compounds of the present invention was tested in mice by means of the "abdominal constriction" response. The test is based on the observation that following interperitoneal injection of a noxious agent, such as acetylcholine chloride, mice show a response which consists of a wave of constriction and elongation passing caudally along the abdominal wall, sometimes accompanied by twisting of the trunk and followed by extension of the hind limbs. […] Non-fasted female mice, weighing between 20 and 25 g, were used in the studies. […] The animals were then placed in a circular glass enclosure and the number of responses counted during a given time period. Compounds completely inhibiting the response to acetycholine in at least five out of ten animals were subsequently tested at reduced dosage levels, using groups of ten animals per dose. The dose required to produce a specified response, that is, analgesic effect, is termed the individual effective dose; the response is a quantal rather than a graded response, since it is either present or absent. The cumulative frequency distribution of individual effective doses obtained, plotted as a function of logarithm of dose, is known as a dose-percent or dose-response curve. The ED50 and ED90 is then calculated from the dose-response curve obtained in the above experiments. […] The expression ED90 indicates the amount of compound required to produce an analgesic effect in 90 percent of animals tested.

[2] = system: abdominal constriction response; assay: duration of analgesic activity (abdominal constriction response, time for 50 percent decay of the analgesic effect of the ED90 dosage); type: in vivo, mice; conditions: for Duration of Activity 1/2 T: time to 50 percent decay of analgesic effect, pharmacologically equipotent doses, based on ED90 dosages; for increase in duration of activity versus unsubstituted control compound (factor): in comparison to the unsubstituted control compound
Procedure: The analgesic activity of the compounds of the present invention was tested in mice by means of the "abdominal constriction" response. The test is based on the observation that following interperitoneal injection of a noxious agent, such as acetylcholine chloride, mice show a response which consists of a wave of constriction and elongation passing caudally along the abdominal wall, sometimes accompanied by twisting of the trunk and followed by extension of the hind limbs. […] Non-fasted female mice, weighing between 20 and 25 g, were used in the studies. […] The animals were then placed in a circular glass enclosure and the number of responses counted during a given time period.

[3] = subcutaneous, 10 min before i.p. acetylcholine chloride (3.2 mg/kg), mice, read-out: ED50

Structure (SMILES) | ED50 / potency, in words [1] | Duration of Activity 1/2 T [2] | ED50 [1, 3] | further results
CCN(CC)CCNC(=O)c1cccc(C)c1O [Example 2, N-(2-diethylaminoethyl)-3-methylsalicylamide hydrochloride] | fairly low ED50 | < 40 min |  | ED50 [1]: 14.2 mg/kg; analgesic activity, in words ([1]; mice): exhibited analgesic activity; duration of analgesic activity, in words ([2]; compared with control or prior art compounds): no meaningful increase in the duration of analgesic activity
CCN(CC)CCNC(=O)c1cccc(CC(C)C)c1O [Example 5, N-(2-diethylaminoethyl)-3-isobutylsalicylamide hydrochloride] |  | 205 min | 44.5 mg/kg | increase in duration of activity versus unsubstituted control compound (factor) [2]: greater than 5 fold
CCN(CC)CCNC(=O)c1ccccc1O.Cl [Control, N-(2-diethylaminoethyl)salicylamide hydrochloride, reference compound] |  |  | 16.6 mg/kg | analgesic activity, in words ([1]; mice): exhibited analgesic activity
C=CCc1cccc(C(=O)NCCN(CC)CC)c1O [Example 8, N-(2-diethylaminoethyl)-3-allylsalicylamide oxalate] |  | 80 min | 17.2 mg/kg | 
C=C(C)Cc1cccc(C(=O)NCCN(CC)CC)c1O [Example 9, N-(2-diethylaminoethyl)-3-methallylsalicylamide oxalate] | substantially at the same potency as that of the control compound | 60 min | 23.8 mg/kg | 
CCN(CC)CCNC(=O)c1cccc(C(C)(C)C)c1O [Example 6, N-(2-diethylaminoethyl)-3-t-butylsalicylamide hydrochloride] | substantially at the same potency as that of the control compound | 120 min | 14.3 mg/kg | 
CCN(CC)CCNC(=O)c1cccc(Cl)c1O [Example 10, N-(2-diethylaminoethyl)-3-chlorosalicylamide hydrochloride] |  |  |  | analgesic activity (no activity) [1]: no activity; analgesic activity (no activity) ([1]; listed as 3-chloro): no analgesic activity
CCN(CC)CCNC(=O)c1cccc(C(C)C)c1O [Example 1, N-(2-diethylaminoethyl)-3-isopropylsalicylamide hydrochloride] | substantially at the same potency as that of the control compound | 80 min | 12.7 mg/kg | 
CCCCc1cccc(C(=O)NCCN(CC)CC)c1O [Example 4, N-(2-diethylaminoethyl)-3-n-butylsalicylamide oxalate] | less active analgesics than the other examples and the control sample | 125 min | 31 mg/kg | increase in duration of activity versus unsubstituted control compound (factor) [2]: greater than 5 fold
CCN(CC)CCNC(=O)c1cccc(C(C)(C)CC)c1O [Example 7, N-(2-diethylaminoethyl)-3-t-amylsalicylamide hydrochloride] |  |  |  | analgesic activity (no activity) [1]: no activity; analgesic activity (no activity) ([1]; listed as amyl): no analgesic activity
CCCCCCCCc1cccc(C(=O)NCCN(CC)CC)c1O [Example 3, N-(2-diethylaminoethyl)-3-n-octylsalicylamide hydrochloride] |  |  |  | analgesic activity (no activity) [1]: no activity; analgesic activity (no activity) ([1]; listed as n-octyl): no analgesic activity
